How the values were obtained:
[1] = tested on: apoptotic HL-60 cell lysates; test: Cleavage of caspase-3 substrates by apoptotic HL-60 cell lysates; type: biochemical; conditions: 10 μM or 50 μM substrate, 37° C., vinblastine treated HL-60 cell lysates
Description: (§1) The caspase substrates were assayed by recombinant caspase-3 and by lysates prepared from apoptotic HL-60 cells. The assays were carried out at 37° C. in 96-well plates in a 100 μL incubation containing 30 μL of caspase-3 preparation or cell lysate, 10 μM or 50 μM of the substrate, and caspase assay buffer (40 mM 1,4-piperazinebis(ethansulfonic acid) (PIPES, Aldrich Chemical Company) pH 7.2; 100 mM NaCl; 10% sucrose; 0.1% CHAPS; 1 mM EDTA; 10 mM DTT). At the end of the incubation period, the fluorescence was measured on a Bio-Tek FL500 fluorescence microplate reader using excitation and emission wavelengths of 485 and 530 nm, respectively. Two different controls were run: 1) an enzyme blank consisting of samples containing substrate, but without enzyme or cell lysate; 2) an inhibitor control, consisting of samples which contained the caspase inhibitor, Ac-DEVD-CHO (f.c., 10 μM).

[2] = biological target: T1, recombinant human caspase-3 (Homo sapiens, UniProt P42574); test: Cleavage of caspase-3 substrates by recombinant human caspase-3; type: biochemical; conditions: for Cleavage by Caspase-3: 10 μM or 50 μM substrate, 37° C.
T1 sequence (P42574 29-175 limits assumed): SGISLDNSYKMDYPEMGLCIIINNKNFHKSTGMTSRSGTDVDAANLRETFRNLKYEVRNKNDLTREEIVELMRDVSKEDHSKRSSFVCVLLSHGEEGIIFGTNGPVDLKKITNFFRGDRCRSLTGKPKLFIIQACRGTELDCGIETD
T1 sequence (P42574 176-277 limits assumed): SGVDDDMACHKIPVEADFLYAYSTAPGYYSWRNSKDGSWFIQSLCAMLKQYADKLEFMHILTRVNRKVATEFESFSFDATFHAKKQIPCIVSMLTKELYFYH
Description: as §1

[3] = Fluorescence and stability of N-acetyl-Rhodamine 110 compared to Rhodamine 110 (fluorometric assay); type: physicochemical
Description: The activities of Rhodamine 110 and N-acetyl-Rhodamine 110 as fluorescent moieties for synthetic substrates were measured in a fluorometric assay. The fluorescent signal is read in a spectrofluorometer or in a fluorometric microtiter plate reader at excitation wavelength of 485 and emission 530. Using this assay, the relative fluorescent values were determined for the two fluorescent moieties.
Fluorescence was measured using the following buffer conditions: 100 mM HEPES pH 7.5, with 10% sucrose, 1% CHAPS, 5 mM glutathione, and 1-200 nM test compound. The assay for stability was typically carried out at 37° C. for 2 days.

recombinant ICE = biological target: T2, recombinant ICE (Homo sapiens, UniProt P29466); test: Fluorometric enzyme assay, cleavage of substrate by recombinant ICE; type: biochemical; conditions: for ICE Vmax / Km: 1-100 μM substrate, 37° C.; for Km: NA = no activity observed at 1-100 μM substrate, 3 h incubation; for efficiency as substrate for ICE: summary of Table 4
T2 construct: made in house; host or cells: Sf9 insect cells, baculovirus vector
T2 sequence (P29466 120-297 limits assumed): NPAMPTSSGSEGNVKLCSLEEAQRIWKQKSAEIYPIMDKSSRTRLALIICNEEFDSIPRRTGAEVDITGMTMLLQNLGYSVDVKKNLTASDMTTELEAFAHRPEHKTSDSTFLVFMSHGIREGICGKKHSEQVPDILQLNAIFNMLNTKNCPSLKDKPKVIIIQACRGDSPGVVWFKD
T2 sequence (P29466 317-404 limits assumed): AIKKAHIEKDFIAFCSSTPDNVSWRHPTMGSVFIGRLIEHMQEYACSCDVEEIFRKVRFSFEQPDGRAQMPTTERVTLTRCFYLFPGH
Description: (§2) The activities of N-(Z-VD)-N′-acetyl-Rhodamine 110, N-(Z-VAD)-N′-acetyl-Rhodamine 110, N-(Z-DEVD)-N′-acetyl-Rhodamine 110 SEQ ID NO:5, N-(Z-YVAD)-N-acetyl-Rhodamine 110 SEQ ID NO:2, (Z-VAD)2-Rhodamine 110 and (Z-YVAD)2-Rhodamine 110 SEQ ID NO:2 as synthetic substrates for recombinant CPP32 and ICE were measured in a fluorometric enzyme assay. […] See, Webb, N. R. et al., “Expression of proteins using recombinant Baculovirus,” Techniques 2:173-188 (1990). Cleavage of the synthetic substrates by the enzyme results in a fluorescent signal which is read in a spectrofluorometer or in a fluorometric microtiter plate reader. Using this assay, the Km and Vmax values were determined for each substrate with either CPP32 or ICE.
(§3) CPP32 and ICE dependent substrate cleavage was measured using the following buffer conditions: 100 mM HEPES pH 7.5, with 10% sucrose, 1% CHAPS, 5 mM glutathione, and 1-100 μM test substrate. Nonspecific enzyme cleavage was determined with the use of the specific CPP32 and ICE inhibitors consisted of an oligomer with the sequence Asp-Glu-Val-Asp or Tyr-Val-Ala-Asp, respectively, with an aldehyde group conjugated to the C-terminus. The assay for enzyme activity was typically carried out at 37° C. for 60 minutes.

recombinant CPP32 = biological target: T3, recombinant CPP32 (Homo sapiens, UniProt P42574); test: Fluorometric enzyme assay, cleavage of substrate by recombinant CPP32; type: biochemical; conditions: for efficiency as substrate for CPP32: summary of Table 4
T3 construct: made in house; host or cells: Sf9 insect cells, baculovirus vector
T3 sequence (P42574 29-175 limits assumed): T1 sequence (P42574 29-175 limits assumed)
T3 sequence (P42574 176-277 limits assumed): T1 sequence (P42574 176-277 limits assumed)
Description: as §2, §3

HL-60 cells = test: Staining of apoptotic HL-60 cells by caspase-3 substrate (whole-cell assay, microscopy); type: cell-based; conditions: 50 μM Ac-DEVD-CHO; substrate 50 μM N-Ac-DEVD-N′-octyloxycarbonyl-R110
Description: The ability of N-Ac-DEVD-N′-octyloxycarbonyl-R110 SEQ ID NO:5 to detect caspase activation in intact cells was tested using apoptotic HL-60 and Jurkat cells. These whole-cell assays were carried out in two stages: 1) induction of apoptosis; 2) incubation with the substrate. For HL-60 cells, apoptosis was induced by treatment with 10 μg/ml vinblastine for 4 hours. Control samples were treated with DMSO. For Jurkat cells, apoptosis was induced by treatment with 500 ng/ml agonistic antiFas antibody for 2 hours. Control samples were treated with PBS. Following apoptosis induction, the cells were incubated with 50 μM N-Ac-DEVD-N′-octyloxycarbonyl-R110 SEQ ID NO:5 in caspase assay buffer (40 mM PIPES, pH 7.4; 100 mM NaCl; 10% sucrose; 1 mM EDTA; 10 mM DTT). The cells were than transferred to a glass microslide and viewed by epifluorescent illumination on a Nikon inverted microscope.

[4] = listed as N-Z-EVD-N′-Ethoxycarbonyl-R110

Row | Compound | Cleavage by Apoptotic Lysates [1] | Cleavage by Caspase-3 [2] | efficiency as substrate for ICE (recombinant ICE) | efficiency as substrate for CPP32 (recombinant CPP32) | further results
1 | CCOC(=O)Nc1ccc2c(c1)Oc1cc(NC(=O)C(CC(=O)O)NC(=O)C(NC(=O)C(CCC(=O)O)NC(=O)OCc3ccccc3)C(C)C)ccc1C21OC(=O)c2ccccc21 (stereo not shown) [N-Z-EVD-N′-ethoxycarbonyl-R110] | Fair | Fair |  |  | Cleavage by Apoptotic Lysates [1, 4]: cleaved efficiently; Cleavage by Caspase-3 [2, 4]: cleaved efficiently
2 | CCCCCCOC(=O)Nc1ccc2c(c1)Oc1cc(NC(=O)[C@H](CC(=O)O)NC(=O)[C@@H](NC(=O)[C@H](CCC(=O)O)NC(=O)[C@H](CC(=O)O)NC(C)=O)C(C)C)ccc1C21OC(=O)c2ccccc21 (stereo partly drawn) [N-Ac-DEVD-N′-hexyloxycarbonyl-R110, N-(Ac-Asp-Glu-Val-Asp)-N′-hexyloxycarbonyl-Rhodamine-110] | Good | Good |  |  | 
3 | CC(=O)Nc1ccc2c(c1)Oc1cc(N)ccc1C21OC(=O)c2ccccc21 (stereo not shown) [N-acetyl Rhodamine 110, N-Acetyl-Rhodamine 110] |  |  |  |  | stability and efficiency as fluorescent indicator ([3]; 37° C. for 2 days): stable and efficient fluorescent indicator; ratio of fluorescent signal (Rhodamine 110/N-acetyl Rhodamine 110) ([3]; after two days incubation at 37° C.): 10.1; ratio of fluorescent signal (Rhodamine 110/N-acetyl Rhodamine 110) ([3]; time zero, excitation 485, emission 530, HEPES pH 7.5 buffer): 10.2
4 | CCOC(=O)Nc1ccc2c(c1)Oc1cc(NC(=O)[C@H](CC(=O)O)NC(=O)[C@@H](NC(=O)[C@H](CCC(=O)O)NC(=O)[C@H](CC(=O)O)NC(C)=O)C(C)C)ccc1C21OC(=O)c2ccccc21 (stereo partly drawn) [N-Ac-DEVD-N′-ethoxycarbonyl-R110, N-(Ac-Asp-Glu-Val-Asp)-N′-ethoxycarbonyl-Rhodamine 110] | Good | Good |  |  | 
5 | CC(C)[C@H](NC(=O)[C@H](Cc1ccc(O)cc1)NC(=O)OCc1ccccc1)C(=O)N[C@@H](C)C(=O)N[C@@H](CC(=O)O)C(=O)Nc1ccc2c(c1)Oc1cc(NC(=O)[C@H](CC(=O)O)NC(=O)[C@H](C)NC(=O)[C@@H](NC(=O)[C@H](Cc3ccc(O)cc3)NC(=O)OCc3ccccc3)C(C)C)ccc1C21OC(=O)c2ccccc21 [(Z-YVAD)2-Rhodamine 110, (Z-Tyr-Val-Ala-Asp)2-Rhodamine 110] |  |  | efficient substrates | not for CPP32 | ICE Vmax (recombinant ICE): 14 nmol/min; Km (recombinant ICE): 6 µM
6 | CCOC(=O)Nc1ccc2c(c1)Oc1cc(NC(=O)[C@H](CC(=O)O)NC(=O)[C@@H](NC(=O)[C@H](CCC(=O)O)NC(=O)[C@H](CC(=O)O)NC(=O)OCc3ccccc3)C(C)C)ccc1C21OC(=O)c2ccccc21 (stereo partly drawn) [N-Z-DEVD-N′-ethoxycarbonyl-R110, N-(Cbz-Asp-Glu-Val-Asp)-N′-ethoxycarbonyl-Rhodamine 110] | Good | Good |  |  | 
7 | CC(=O)N[C@@H](CC(=O)O)C(=O)N[C@@H](CCC(=O)O)C(=O)N[C@H](C(=O)N[C@H](C=O)CC(=O)O)C(C)C [Ac-DEVD-CHO, reference compound] |  |  |  |  | fluorescent signal of vinblastine-treated HL-60 cells with inhibitor added during the assay stage (HL-60 cells): almost no fluorescent signal
8 | CCSC(=O)Nc1ccc2c(c1)Oc1cc(NC(=O)[C@H](CC(=O)O)NC(=O)[C@@H](NC(=O)[C@H](CCC(=O)O)NC(=O)[C@H](CC(=O)O)NC(C)=O)C(C)C)ccc1C21OC(=O)c2ccccc21 (stereo partly drawn) [N-Ac-DEVD-N′-(ethylthio)carbonyl-R110, N-(Ac-Asp-Glu-Val-Asp)-N′-(ethylthio)carbonyl-Rhodamine 110] | Good | Good |  |  | 
9 | CC(C)[C@H](NC(=O)OCc1ccccc1)C(=O)N[C@@H](C)C(=O)N[C@@H](CC(=O)O)C(=O)Nc1ccc2c(c1)Oc1cc(NC(=O)[C@H](CC(=O)O)NC(=O)[C@H](C)NC(=O)[C@@H](NC(=O)OCc3ccccc3)C(C)C)ccc1C21OC(=O)c2ccccc21 [(Z-VAD)2-Rhodamine 110, (Z-Val-Ala-Asp)2-Rhodamine 110] |  |  | efficient substrates | not for CPP32 | ICE Vmax (recombinant ICE): 9 nmol/min; Km (recombinant ICE): 21 µM
10 | CC(=O)Nc1ccc2c(c1)Oc1cc(NC(=O)C(CC(=O)O)NC(=O)C(NC(=O)OCc3ccccc3)C(C)C)ccc1C21OC(=O)c2ccccc21 (stereo not shown) [N-(Z-VD)-N′-Ac-Rhodamine 110, N-(Z-Val-Asp)-N′-acetyl-Rhodamine 110] |  |  | not for ICE | efficient substrate | CPP32 Vmax (recombinant CPP32; 1-100 μM substrate, 37° C.): 11 nmol/min
11 | CC(=O)Nc1ccc2c(c1)Oc1cc(NC(=O)C(CC(=O)O)NC(=O)C(C)NC(=O)C(NC(=O)OCc3ccccc3)C(C)C)ccc1C21OC(=O)c2ccccc21 (stereo not drawn) [N-(Z-VAD)-N′-Ac-Rhodamine 110, N-(Z-Val-Ala-Asp)-N′-acetyl-Rhodamine 110] |  |  | efficient substrates | not for CPP32 | ICE Vmax (recombinant ICE): 4 nmol/min; Km (recombinant ICE): 70 µM
12 | CCOC(=O)Nc1ccc2c(c1)Oc1cc(NC(=O)[C@H](CC(=O)O)NC(=O)[C@@H](NC(=O)OCc3ccccc3)C(C)C)ccc1C21OC(=O)c2ccccc21 (stereo partly drawn) [N-Z-VD-N′-ethoxycarbonyl-R110, N-(Cbz-Val-Asp)-N′-Ethoxycarbonyl-Rhodamine 110] | Poor | the signal was low and Poor |  |  | amount of recombinant caspase-3 required for cleavage relative to tri- and tetrapeptide substrates ([2]; FIG. 2A): 50 fold

Source: patent publication US6759207B2, “Fluorogenic or fluorescent reporter molecules and their applications for whole-cell fluorescence screening assays for caspases and other enzymes and the use thereof” (Cytovia, Inc., priority 1997, dated 2004)
